# Results: patent US10265294B2, “Compositions and methods for treating epithelial cancer” (YALE UNIVERSITY, priority 2016, dated 2019)
# Tests used:
# [1] = system: i.p. tumors of mCherry+OCSC1-F2 ovarian cancer cells; assay: Recurrent disease xenograft, maintenance treatment after Paclitaxel; format: in vivo
# Source text: The Yale University Institutional Animal Care and Use Committee approved all in vivo studies described. Intra-peritoneal tumors were established in athymic nude mice using 4×10^6 mCherry+OCSC1-F2 ovarian cancer cells (Craveiro, et al., 2013, Cancer Med. 2:751-762). Injection of cancer cells is designated as day 0 and treatment commenced between day 3-5. Establishment of i.p. tumors was confirmed by live imaging (In-Vivo FX PRO, Bruker Corp., Billerica, Mass.) prior to treatment. TRX-E-002-1 was prepared in 20% Captisol or Dexsolve and administered daily at 50 mg/kg or 100 mg/kg. Paclitaxel was given at 12 mg/kg q3d and Cisplatin at 5 mg/kg weekly. All treatments were given i.p. Tumor growth was monitored q3d by live imaging and response to treatment was assessed using ROI area.
# Although the standard of care for ovarian cancer patients (platinum plus taxane) is effective initially, most patients develop recurrent disease. Recurrence is the major cause of mortality in ovarian cancer patients, and thus approaches that can prevent recurrence are critical to improve patient survival. As described elsewhere herein, a unique advantage of the xenograft model is the recapitulation of recurrent disease that is typically observed in patients with ovarian cancer. […] Upon recurrence, tumors acquire resistance and become unresponsive to a second-round of Paclitaxel regimen, as observed in ovarian cancer patients. Thus, the model allows one to assess the value of novel compounds in preventing recurrence when given as maintenance treatment.
# Thus mice were given Paclitaxel as initial treatment. […] After the 4th dose of Paclitaxel mice were re-randomized into the different maintenance groups. Here the maintenance protocol consisted of continued treatment with Paclitaxel, or maintenance with TRX-E-002-1 (100 mg/kg), or maintenance with Vehicle control.
# [2] = system: chemoresistant ovarian cancer stem cells; assay: OCSC growth and morphology with TRX-E-002-1, AICAR or the combination; format: cell-based, human
# Description: The effect of each compound on cell growth was assessed using a kinetic live cell imagine system (Incucyte, Essen Bioscience). Proliferation was determined based on either confluence or fluorescent count from nuclear-restricted RFP or GFP. The IC50 values were calculated using GraphPad Prism (GraphPad Software Inc., LaJolla, Calif.). […]
# [3] = system: OCSCs (CD44+/MyD88+ ovarian cancer stem cells); assay: OCSC growth, morphology, RFP+ cell count and Celltox cell death (kinetic live cell imaging); format: cell-based, human
# Description: (§1) CD44+/MyD88+ ovarian cancer stem cell clones (OCSC1 and OCSC2) and CD44−/MyD88− ovarian cancer cells (OCC1 and OCC2) were isolated from either tumor tissue or ascites obtained from patients diagnosed with stage III/IV serous ovarian cancer and propagated (Alvero, et al., 2009, Cell Cycle 8:158-166; Chefetz, et al., 2013, Cell Cycle 12:511-521). The epithelial nature of the isolated cells was determined by immunostaining for Ck18. Purity of the cultures based on CD44 expression by flow cytometry and chemoresistance were routinely tested. Stable expression of nuclear-restricted red fluorescent (in OCSCs) or green fluorescent proteins (in OCCs) was performed by transduction using NUCLIGHT® Red or Green Lentivirus Reagent (Essen Bioscience, Ann Arbor, Mich.). Spheroids were formed from OCSCs by culturing in ultra-low attachment multi-well plates (Corning, Inc., Corning, N.Y.).
# (§2) Effect of each compound on cell morphology, growth, and viability was assessed using a kinetic live cell imaging system (Incucyte, Essen Bioscience). Proliferation was calculated as previously described (Alvero, et al., 2011, Mol. Cancer Ther. 10:1385-1393) using metrics from either confluence or fluorescent count from nuclear-restricted RFP or GFP. Cell death was quantified; similarly CELLTOX® Green Cytotoxicity Assay (Promega, Madison, Wis.). IC50 was calculated as described using GraphPad Prism (GraphPad Software Inc., LaJolla, Calif.).
# In vitro, conventional chemotherapeutic drugs had negligible effect on OCSC growth even in the μM range (FIG. 1B).
# TRX-E-002 exists as a racemic mixture comprised of two enantiomers, enantiomer A (TRX-E-002-1) and enantiomer B (TRX-E-002-2). Thus, the enantiomers were separated and assessed separately. To distinguish between an analog's cytostatic or cytotoxic activity, OCSC clones that are stably transfected with nuclear-restricted RFP were used, which allows an accurate quantification of the number of cells and can be multiplexed with CELLTOX® assay to concomitantly measure the number of dead cells.
# [4] = system: OCSC1 (chemoresistant CD44+/MyD88+ ovarian cancer stem cell clone); assay: Real-time measurement of cell number/cell death and IC50, OCSC1 clone; format: cell-based; conditions: Homo sapiens; screen of 40 SBP analogs, OCSC1 clone (FIG. 1A)
# Description: CD44+/MyD88+ ovarian cancer stem cell clones (OCSC1 and OCSC2) and CD44−/MyD88− ovarian cancer cells (OCC1 and OCC2) were isolated from either tumor tissue or ascites obtained from patients diagnosed with stage III/IV serous ovarian cancer and propagated (Alvero, et al., 2009, Cell Cycle 8:158-166; Chefetz, et al., 2013, Cell Cycle 12:511-521). The epithelial nature of the isolated cells was determined by immunostaining for Ck18. Purity of the cultures based on CD44 expression by flow cytometry and chemoresistance were routinely tested. […]
# as §2
# (§3) A panel of four different SBP subfamilies with cytotoxic activity against chemoresistant ovarian cancer stem cells were tested for efficacy in inducing ovarian cancer stem cell death. […] The efficacy of each analog was determined based on its IC50.
# [5] = system: OCSC2 (chemoresistant CD44+/MyD88+ ovarian cancer stem cell clone); assay: Real-time measurement of cell number/cell death and IC50, OCSC2 clone; format: cell-based, human
# Description: as §1, §2, §3
# TRX-E-002 exists as a racemic mixture comprised of two enantiomers, enantiomer A (TRX-E-002-1) and enantiomer B (TRX-E-002-2). Thus, the enantiomers were separated and assessed separately. […]
# OCSCs = assay: Cell death of OCSCs with JNK or ERK pathway inhibitor; format: cell-based, human; conditions: U0126 10 μM, 24 hour time-point
# Description: as §2
# Jun N-terminal kinase (JNK) is a stress-activated protein kinase and the main kinase that phosphorylates c-Jun. To determine whether the JNK/Jun pathway is involved in TRX-E-002-1-induced cell death, the JNK inhibitor SP600125 (1,9-Pyrazoloanthrone; a reversible ATP competitive inhibitor selective for JNK 1, 2, and 3) was used. Cells were treated with TRX-E-002-1 in the presence or absence of SP600125.
# To determine the importance of downregulating the levels of p-ERK, cells were treated with U0126 (1,4-diamino-2,3-dicyano-1,4-bis(2-aminophenylthio)butadiene) to recapitulate the effect of TRX-E-002-1 on the ERK pathway.
# ERK = assay: Phosphokinase array / Western blot for phosphorylated ERK in OCSCs; format: cell-based, human; conditions: U0126 10 μM, 2 hours; comparable to levels induced by TRX-E-002-1
# Description: SDS-PAGE and Western blots were performed using 20 μg of total protein lysate as described in Kamsteeg, et al., 2003, Oncogene 22:2611-2620. Antibodies used were: mouse anti-phospho ERK (Santa Cruz Biotechnology, Inc., Dallas, Tex.); rabbit anti-phospho c-Jun, rabbit anti c-Jun, rabbit anti-ERK, rabbit anti-cleaved caspase 3 all from Cell Signaling Technology, Danvers, Mass.; and mouse anti-GAPDH (Sigma-Aldrich).
# In order to elucidate the early pathways responsible for the sustained cytotoxic effect observed with TRX-E-002-1, a phosphokinase array was performed. The phosphokinase array detected relative phosphorylation levels of 43 different kinases involved in major signal transduction pathways.
# The western blot results also validated the decrease in p-ERK in cells treated with TRX-E-002-1. […] The effect on the phosphorylation status of the kinases (upregulation of p-cJun and downregulation of p-ERK) was observed as early as 2 h post-treatment and maintained up to 24 h (FIG. 4A). The phosphorylation levels of c-Jun and ERK correlate with the differential ability of the two doses of TRX-E-002-1 to induce a sustained cytotoxic effect. […] This correlates with the ability of this dose of TRX-E-002-1 to maintain the upregulation of p-cJun and downregulation of p-ERK even when the compound is removed (FIG. 4B). […]
# [6] = system: co-culture of RFP-labeled OCSC2 and GFP-labeled OCC2; assay: In vitro co-culture model 50% RFP-OCSC2 / 50% GFP-OCC2; format: cell-based; conditions: co-culture 50/50; TRX-E-002-1 0.12 μM, Cisplatin 20 μM
# Description: as §1, §2
# Without wishing to be limited by any theory, response to chemotherapy may be modified by cross-talk among different cancer cell types within the tumor. Thus, to mimic the heterogeneity of ovarian tumors an in vitro co-culture model consisting of RFP-labeled chemoresistant OCSC2 and GFP-labeled chemosensitive OCC2 was used. The co-cultures, which are comprised of 50% RFP-OCSC2 and 50% GFP-OCC2 at time of treatment, were exposed to TRX-E-002-1, cisplatin, or the combination of both. Since GFP-OCC2 has faster doubling time than RFP-OCSC2, it overtook the control co-cultures by the end of the experiment and thus the control co-cultures are mainly comprised of GFP-OCC2 by the 24 h time-point (FIG. 2B).
smiles,measurement,setting,value
"CC(=O)O[C@H]1C(=O)[C@@]2(C)[C@H]([C@H](OC(=O)c3ccccc3)[C@]3(O)C[C@H](OC(=O)[C@H](O)[C@@H](NC(=O)c4ccccc4)c4ccccc4)C(C)=C1C3(C)C)[C@]1(OC(C)=O)CO[C@@H]1C[C@@H]2O [Paclitaxel, reference compound]",tumor progression during initial treatment,[1]; Paclitaxel 4 doses at 12 mg/kg i.p.,significant delay in tumor progression
same,tumor progression during maintenance treatment,"[1]; after 4th dose of Paclitaxel, TRX-E-002-1 100 mg/kg daily i.p. or continued Paclitaxel",tumor progression was observed
same,gross examination of residual disease,[1]; maintenance groups,visible carcinomatosis and extensive metastasis
same,tumor weights at end point compared to control,[1]; maintenance groups,not
"NC(=O)c1ncn([C@@H]2O[C@H](CO)[C@@H](O)[C@H]2O)c1N [AICAR, 5-aminoimidazole-4-carboxamide-1-β-D-ribofuranoside, reference compound]",cell morphology / apoptotic cells,"[2]; 48 hours, AICAR at 0.2 mM",no effect
same,effect on cell growth,"[2]; TRX-E-002-1 25 ng/ml, mono therapies or combination",minimal effect
"COc1cc(C2COc3c(ccc(O)c3C)C2c2ccc(O)cc2)cc(OC)c1O (racemic) [TRX-E-002, 3-(4-hydroxy-3,5-dimethoxyphenyl)-4-(4-hydroxyphenyl)-8-methylchroman-7-ol]",apoptotic cells by microscopic evaluation of the cultures,"[3]; 24 hours, compared with Cisplatin or Paclitaxel treated cultures",higher percentage of apoptotic cells
same,effect on OCSC growth,"[3]; chemotherapeutic drugs even in the μM range, TRX-E-002 at low concentrations",persistent growth inhibitory effect
same,IC50,[4],< 0.245 µM
same,IC50,"[5]; Homo sapiens, screen of 40 SBP analogs, OCSC2 clone (FIG. 1A)",< 0.245 µM
"N#CC(=C(N)Sc1ccccc1N)C(C#N)=C(N)Sc1ccccc1N [U0126, 1,4-diamino-2,3-dicyano-1,4-bis(2-aminophenylthio)butadiene, reference compound]",effect on cell death relative to TRX-E-002-1,OCSCs,not comparable
same,levels of p-ERK,ERK,downregulated
"N.N.[Cl][Pt][Cl] [Cisplatin, reference compound]",number of GFP+ cells (GFP-OCC2),[6],decrease
same,number of mCherry+ cells (RFP-OCSC2),[6],no effect
"COc1cc(C2COc3c(ccc(O)c3C)C2c2ccc(O)cc2)cc(OC)c1O (single isomer, unassigned) [TRX-E-002-2]",number of nuclear RFP+ cells,"[3]; RFP OCSC clones, TRX-E-002-1 beginning at the 0.245 μM dose, TRX-E-002-2 except for the very high dose of 10 μM",mostly ineffective
same,IC50,"[5]; OCSC2, 24 hours (FIG. 1G)",10 µM
